The results in this text go back to US20260176266A1, “PIPERIDINOPYRIMIDINE DERIVATIVE, PREPARATION METHOD THEREFOR AND USE THEREOF IN MEDICINE” (TUOJIE BIOTECH (SHANGHAI) CO., LTD., priority 2022, published 2026).

The subject of data set [1] is MCF7 Palbo-R (palbociclib-resistant cells constructed on MCF7). Description: Inhibitory activity against tumor cells, CellTiter-Glo: MCF7 Palbo-R. Format: cell-based. The conditions noted are these: Homo sapiens, 168 h, 7 days treatment. Here is the method:
(§1) MCF7 (ATCC #HTB-22) and T47D (ATCC #HTB-133) breast cancer cells and PANC-1 (ATCC #CRL-1469) pancreatic cancer cells were purchased from ATCC. MDA-MB-231 (Cobioer #CBP60382), HCC1806 (Cobioer #CBP60373), and MDA-MB-468 (Cobioer #CBP60387) breast cancer cells, HCT-116 (Cobioer #CBP60028) colorectal cancer cells, and OCI-AML-3 (Cobioer #CBP60817) and MV-4-11 (Cobioer #CBP60522) leukemia cells were purchased from Nanjing Cobioer Biosciences Co., Ltd.
(§2) OCI-AML-3 was cultured in RPMI 1640 medium with 20% FBS; HCC1806 and T47D were cultured in RPMI 1640 medium with 10% FBS; MCF7, MDA-MB-231, MDA-MB-468, and PANC-1 were cultured in DMEM medium with 10% FBS; MV-4-11 was cultured in IMDM medium with 20% FBS; HCT-116 was cultured in MC′5A medium with 10% FBS.
(§3) Palbociclib-resistant cells were constructed on MCF7 parent cells, designated MCF7 Palbo-R, and the culture conditions were consistent with those of the parent cells. All tumor cells were cultured in a cell incubator at 37° C. with 5% CO2. The cells were seeded at corresponding cell densities (600 cells/well for MDA-MB-231; 500 cells/well for MDA-MB-468, PANC-1, and HCT-116; 200 cells/well for MCF7 and HCC1806; 800 cells/well for MCF7 Palbo-R; 3000 cells/well for OCI-AML-3 and MV-4-11) in 384-well plates and cultured overnight in the incubator. On the second day, the cells were treated with compounds. The maximum compound concentration was 10 μM and was 3-fold diluted to obtain 9 concentrations, each tested in duplicate, and the final concentration of DMSO was 0.1%. The cells continued to be cultured in the incubator, with MDA-MB-231, PANC-1, MDA-MB-468, OCI-AML-3, and MV-4-11 being treated with drugs for 5 days and HCC1806, MCF7, MCF7 Palbo-R, and HCT116 being treated with drugs for 7 days. Cell viability was tested using the Celltiter Glo assay kit (Promega), and the testing method was consistent with the operational method provided by the kit. Readings were taken using an Envision multimode microplate reader. Data were processed using GraphPad Prism 8, and IC50 was calculated. […]
(Cellular ATP, detected with luciferase, serves as a proxy for viable cell number.)

In data set [2] the test system is MDA-MB-468 breast cancer cells. Description: Inhibitory activity against tumor cells, CellTiter-Glo: MDA-MB-468. Format: cell-based. The conditions noted are these: Homo sapiens, 120 h, MDA-MB-468, 5 days treatment. Here is the method: as §1, §2, §3
Data set [3] can be described thus: Human liver microsome metabolism study. Format: in vitro ADME. Here is the method: 222.5 μL of human liver microsomes (protein concentration: 1 mg/mL) and 25 μL of NADPH ([…]) were added to an incubation plate and pre-heated for 10 min. 2.5 μL of control compound and test compound (100 μM) were added.
[…] The reaction was stopped by adding 5 volumes of cold acetonitrile containing IS (100 nM alprazolam, 200 nM caffeine, and 100 nM tolbutamide). The reaction mixture was centrifuged, and 100 μL of the supernatant was collected and mixed with 100 μL of ultrapure H2O. Then the mixture was analyzed by LC-MS/MS.
The slope value k was determined by linear regression of the natural logarithm of a curve of the parent drug remaining percentage versus incubation time.
The in-vitro half-life (in-vitro T1/2) was determined by the slope value:
Using the following equation (the average of repeated measurements), the in-vitro T½ (min) was converted to the in-vitro intrinsic clearance rate (in-vitro CLint, in μL/min/mg protein): […]
A general note: Liver microsomes are vesicles of endoplasmic reticulum, rich in cytochrome P450 enzymes.

The term IC50 denotes the concentration that gives 50% inhibition. High values mean weaker potency in that assay, low ones greater potency in that assay. The half-life is the time in which the quantity being followed falls by half. What is called microsomal CLint is a measure of how fast metabolising enzymes remove a compound, apart from limits set by blood flow. Low readings indicate slow turnover, high ones rapid turnover. Take `C[C@@H]1Cc2cnc(NCc3ccn(C)n3)nc2CN1C(=O)N[C@H](CN(C)C)c1ccccc1` [Example 2, (R)—N—((S)-2-(Dimethylamino)-1-phenylethyl)-6-methyl-2-(((1-methyl-TH-pyrazol-3-yl)methyl)amino)-5,8-dihydropyrido[3,4-d]pyrimidine-7(6H)-carboxamide]: the IC50 in data set [1] is 40.6 nM; in data set [2], 30 nM. In data set [3] (human liver microsomes, in-vitro half-life), the half-life at 1 μM was more than 3.08 h. In addition, in data set [3] (human liver microsomes, in-vitro intrinsic clearance), the microsomal CLint at 1 μM was less than 7.5 µL/min/mg. Also, in data set [3] (human liver microsomes, incubation 0.5 min), the “Remaining amount % at 0.5 min” value came out at 100.00%. Besides, the “Remaining amount % at 5 min” value in data set [3] (human liver microsomes, incubation 5 min) was found to be 105.55%. Moreover, the “Remaining amount % at 15 min” value in data set [3] (human liver microsomes, incubation 15 min) was 96.07%. Further, the “Remaining amount % at 30 min” value in data set [3] (human liver microsomes, incubation 30 min) was 100.48%. For the same compound, in data set [3] (human liver microsomes, incubation 60 min), the “Remaining amount % at 60 min” value is listed as 81.83%. Also, in data set [3] (summary of Tables 7 and 8, statement in words), the “metabolic stability in human liver microsomes compared with Janssen-01” value was “more stable metabolism”.
Regarding `C[C@H](Nc1ncc2c(n1)CN(C(=O)N[C@H](CN(C)C)c1ccccc1)[C@H](C)C2)c1ccccn1` [Example 6, (R)—N—((S)-2-(Dimethylamino)-1-phenylethyl)-6-methyl-2-(((S)-1-(pyridin-2-yl)ethyl)amino)-5,8-dihydropyrido[3,4-d]pyrimidine-7(6H)-carboxamide], the figures for the half-maximal inhibitory concentration (IC50) in data set [1] and in data set [2] were 24.6 nM and 21.2 nM, respectively.
